Consider 17 molecules from ChEMBL document CHEMBL3992539, “Discovery of a series of N-(5-(quinolin-6-yl)pyridin-3-yl)benzenesulfonamides as PI3K/mTOR dual inhibitors” (Eur J Med Chem, 2017).

What is called IC50 is the concentration that inhibits the measured activity by half. One may read the Cmax as the peak of the concentration-time curve. Broadly, the AUC(0-t) is the area under the concentration-time curve up to a stated or last time point. Low readings indicate low exposure, high ones high exposure. As a reminder, the MRT is the average time that molecules of a dose stay in the body. The term CL/F denotes clearance divided by bioavailability, as obtained after extravascular dosing.

The source made the active and inactive calls. No cut-off for these calls is given here.

Series [1] has as its target PI3-kinase p110-alpha/p85-alpha (Homo sapiens, UniProt P42336). In words: Inhibition of PI3K p110alpha/p85alpha (unknown origin) using PIP2 as substrate after 1 hr by luminescent kinase-Glo assay. The format is protein-complex assay. A general note: Kinase-Glo reads ATP consumption through a luciferase reaction.
Series [2] has as its system PC-3. In words: Antiproliferative activity against human PC3 cells after 72 hrs by SRB assay. Format: functional, cell-based. Particulars: PC-3, 72 h.
The test system of series [3] is HCT-116. Put plainly: Antiproliferative activity against human HCT116 cells after 72 hrs by SRB assay. Format: functional, cell-based. Particulars: HCT-116, 72 h.
A short description of series [4]: Cmax in mouse at 5 mg/kg, po by UPLC-MS/MS analysis. Format: ADME, organism-based. Also on record: dose 5 mg/kg, route oral. The conditions noted are these: in vivo.
Series [5] in a line: Terminal half life in mouse at 5 mg/kg, po by UPLC-MS/MS analysis. Format: ADME, organism-based. Particulars: in vivo, read-out: beta t1/2 (converted).
Series [6] concerns the target Phosphatidylinositol 4,5-bisphosphate 3-kinase catalytic subunit gamma isoform (Homo sapiens, UniProt P48736). Put plainly: Inhibition of recombinant full length His-tagged human PI3K p110gamma expressed in baculovirus expression system using PIP2 as substrate after 1 hr by ADP-Glo kinase assay.
Series [7] deals with Mus musculus. Put plainly: Volume of distribution in mouse at 5 mg/kg, po by UPLC-MS/MS analysis. Particulars: in vivo. The format is ADME, organism-based.
Series [8] deals with T1, Phosphatidylinositol 4,5-bisphosphate 3-kinase catalytic subunit delta isoform (Homo sapiens, UniProt O00329).
T1 sequence (O00329 whole entry): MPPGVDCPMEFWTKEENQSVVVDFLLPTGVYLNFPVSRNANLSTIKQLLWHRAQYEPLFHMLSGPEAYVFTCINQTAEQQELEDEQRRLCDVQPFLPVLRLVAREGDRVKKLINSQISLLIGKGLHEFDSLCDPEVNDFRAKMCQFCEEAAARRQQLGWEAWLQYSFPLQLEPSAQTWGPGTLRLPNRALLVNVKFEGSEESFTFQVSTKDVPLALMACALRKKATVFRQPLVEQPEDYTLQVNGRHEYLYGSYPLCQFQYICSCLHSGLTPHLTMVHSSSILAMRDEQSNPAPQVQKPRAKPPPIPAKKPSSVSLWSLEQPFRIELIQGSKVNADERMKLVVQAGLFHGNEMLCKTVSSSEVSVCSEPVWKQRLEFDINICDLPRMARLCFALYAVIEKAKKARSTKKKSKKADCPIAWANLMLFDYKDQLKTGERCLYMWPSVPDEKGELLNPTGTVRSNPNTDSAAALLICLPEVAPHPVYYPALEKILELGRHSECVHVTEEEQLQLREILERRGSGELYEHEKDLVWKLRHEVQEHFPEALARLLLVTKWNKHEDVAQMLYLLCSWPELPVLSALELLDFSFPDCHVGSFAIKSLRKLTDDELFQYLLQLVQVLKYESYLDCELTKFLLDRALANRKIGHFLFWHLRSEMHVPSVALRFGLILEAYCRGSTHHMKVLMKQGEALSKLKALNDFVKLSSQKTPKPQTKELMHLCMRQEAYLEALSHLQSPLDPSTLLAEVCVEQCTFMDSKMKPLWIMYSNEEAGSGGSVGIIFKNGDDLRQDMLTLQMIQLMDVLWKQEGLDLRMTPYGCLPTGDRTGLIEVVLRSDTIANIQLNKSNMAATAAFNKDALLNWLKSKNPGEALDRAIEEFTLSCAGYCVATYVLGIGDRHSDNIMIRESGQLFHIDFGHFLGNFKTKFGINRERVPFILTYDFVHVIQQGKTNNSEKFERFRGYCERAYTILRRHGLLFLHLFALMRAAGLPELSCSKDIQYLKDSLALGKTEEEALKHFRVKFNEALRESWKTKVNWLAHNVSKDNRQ
Put plainly: Inhibition of PI3K p110delta (unknown origin) using PIP2 as substrate after 1 hr by ADP-Glo kinase assay.

Series [9] is described as follows: AUCt in mouse at 5 mg/kg, po by UPLC-MS/MS analysis. The format is ADME, organism-based. The conditions noted are these: in vivo.
Series [10] has as its target PI3K p110 beta/p85 alpha (Homo sapiens, UniProt P42338). Put plainly: Inhibition of recombinant full length human N-terminal His6-tagged PI3K p110beta/p85alpha expressed in baculovirus infected Sf21 cells using PIP2 as substrate after 1 hr by ADP-Glo kinase assay.
A short description of series [11]: Mean residence time in mouse at 5 mg/kg, po by UPLC-MS/MS analysis. The format is ADME, organism-based. Particulars: in vivo.
The target of series [12] is Serine/threonine-protein kinase mTOR (Homo sapiens, UniProt P42345). In words: Inhibition of recombinant human N-terminal FLAG-tagged mTOR (1362-end residues) using ULight-4E-BP1 peptide substrate after 1 hr in presence of ATP by Lance Ultra assay.
The nature of series [13]: Plasma clearance in mouse at 5 mg/kg, po by UPLC-MS/MS analysis. Format: ADME, organism-based.
The species entered for series [14] is Homo sapiens. Put plainly: Inhibition of PI3K in PTEN null human PC3 cells assessed as reduction in Akt phosphorylation at Ser-473 residue at 100 nM after 3 hrs by Western blot method. Format: cell-based. Background: A western blot detects proteins with antibodies after separation by electrophoresis.

Sequence of PI3-kinase p110-alpha/p85-alpha (P27986 whole entry): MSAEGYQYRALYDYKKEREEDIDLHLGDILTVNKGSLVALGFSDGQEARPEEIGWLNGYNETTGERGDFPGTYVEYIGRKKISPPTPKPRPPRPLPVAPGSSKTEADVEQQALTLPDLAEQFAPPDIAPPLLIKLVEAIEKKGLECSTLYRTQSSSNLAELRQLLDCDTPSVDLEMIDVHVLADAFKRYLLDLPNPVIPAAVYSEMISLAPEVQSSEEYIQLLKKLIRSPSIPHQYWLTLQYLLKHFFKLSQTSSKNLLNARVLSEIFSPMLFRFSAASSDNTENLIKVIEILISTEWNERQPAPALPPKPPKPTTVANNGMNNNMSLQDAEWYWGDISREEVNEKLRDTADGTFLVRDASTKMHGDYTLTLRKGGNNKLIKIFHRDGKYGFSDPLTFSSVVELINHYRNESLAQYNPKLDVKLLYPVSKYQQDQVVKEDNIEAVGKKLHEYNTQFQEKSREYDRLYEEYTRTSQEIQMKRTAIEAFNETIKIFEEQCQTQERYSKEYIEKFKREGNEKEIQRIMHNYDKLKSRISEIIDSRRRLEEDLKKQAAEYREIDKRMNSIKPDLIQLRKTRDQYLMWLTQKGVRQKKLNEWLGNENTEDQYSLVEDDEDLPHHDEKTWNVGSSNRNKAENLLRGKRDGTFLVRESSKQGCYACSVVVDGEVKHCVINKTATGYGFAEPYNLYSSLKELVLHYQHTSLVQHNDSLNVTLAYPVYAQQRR
Sequence of PI3-kinase p110-alpha/p85-alpha (P42336 whole entry): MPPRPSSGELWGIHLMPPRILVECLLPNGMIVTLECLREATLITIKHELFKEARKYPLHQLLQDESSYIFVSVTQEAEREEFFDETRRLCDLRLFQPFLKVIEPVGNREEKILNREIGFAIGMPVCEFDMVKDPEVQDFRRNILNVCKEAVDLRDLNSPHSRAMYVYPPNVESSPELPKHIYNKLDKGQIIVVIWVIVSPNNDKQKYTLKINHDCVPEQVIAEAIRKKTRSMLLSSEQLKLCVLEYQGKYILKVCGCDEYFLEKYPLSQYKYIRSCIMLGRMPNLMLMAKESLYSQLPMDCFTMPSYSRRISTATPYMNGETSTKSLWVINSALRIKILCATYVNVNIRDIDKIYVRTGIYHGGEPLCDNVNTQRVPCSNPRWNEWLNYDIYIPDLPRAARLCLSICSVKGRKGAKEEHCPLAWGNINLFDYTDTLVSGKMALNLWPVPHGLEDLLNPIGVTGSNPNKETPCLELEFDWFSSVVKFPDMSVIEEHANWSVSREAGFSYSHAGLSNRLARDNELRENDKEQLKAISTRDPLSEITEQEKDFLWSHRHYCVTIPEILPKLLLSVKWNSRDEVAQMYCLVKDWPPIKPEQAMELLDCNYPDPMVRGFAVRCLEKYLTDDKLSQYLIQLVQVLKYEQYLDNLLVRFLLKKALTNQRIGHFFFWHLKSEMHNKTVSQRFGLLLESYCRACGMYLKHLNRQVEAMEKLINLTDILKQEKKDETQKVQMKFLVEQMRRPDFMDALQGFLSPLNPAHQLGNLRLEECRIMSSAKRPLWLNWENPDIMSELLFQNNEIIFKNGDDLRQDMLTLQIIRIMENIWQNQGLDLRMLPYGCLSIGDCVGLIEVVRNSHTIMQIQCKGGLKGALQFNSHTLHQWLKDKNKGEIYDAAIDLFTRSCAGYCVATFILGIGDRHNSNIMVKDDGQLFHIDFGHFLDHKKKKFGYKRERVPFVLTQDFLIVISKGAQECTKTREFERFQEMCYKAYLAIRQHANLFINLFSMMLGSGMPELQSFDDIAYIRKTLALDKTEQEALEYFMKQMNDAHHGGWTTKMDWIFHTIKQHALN
Sequence of Phosphatidylinositol 4,5-bisphosphate 3-kinase catalytic subunit gamma isoform (P48736 whole entry, canonical isoform): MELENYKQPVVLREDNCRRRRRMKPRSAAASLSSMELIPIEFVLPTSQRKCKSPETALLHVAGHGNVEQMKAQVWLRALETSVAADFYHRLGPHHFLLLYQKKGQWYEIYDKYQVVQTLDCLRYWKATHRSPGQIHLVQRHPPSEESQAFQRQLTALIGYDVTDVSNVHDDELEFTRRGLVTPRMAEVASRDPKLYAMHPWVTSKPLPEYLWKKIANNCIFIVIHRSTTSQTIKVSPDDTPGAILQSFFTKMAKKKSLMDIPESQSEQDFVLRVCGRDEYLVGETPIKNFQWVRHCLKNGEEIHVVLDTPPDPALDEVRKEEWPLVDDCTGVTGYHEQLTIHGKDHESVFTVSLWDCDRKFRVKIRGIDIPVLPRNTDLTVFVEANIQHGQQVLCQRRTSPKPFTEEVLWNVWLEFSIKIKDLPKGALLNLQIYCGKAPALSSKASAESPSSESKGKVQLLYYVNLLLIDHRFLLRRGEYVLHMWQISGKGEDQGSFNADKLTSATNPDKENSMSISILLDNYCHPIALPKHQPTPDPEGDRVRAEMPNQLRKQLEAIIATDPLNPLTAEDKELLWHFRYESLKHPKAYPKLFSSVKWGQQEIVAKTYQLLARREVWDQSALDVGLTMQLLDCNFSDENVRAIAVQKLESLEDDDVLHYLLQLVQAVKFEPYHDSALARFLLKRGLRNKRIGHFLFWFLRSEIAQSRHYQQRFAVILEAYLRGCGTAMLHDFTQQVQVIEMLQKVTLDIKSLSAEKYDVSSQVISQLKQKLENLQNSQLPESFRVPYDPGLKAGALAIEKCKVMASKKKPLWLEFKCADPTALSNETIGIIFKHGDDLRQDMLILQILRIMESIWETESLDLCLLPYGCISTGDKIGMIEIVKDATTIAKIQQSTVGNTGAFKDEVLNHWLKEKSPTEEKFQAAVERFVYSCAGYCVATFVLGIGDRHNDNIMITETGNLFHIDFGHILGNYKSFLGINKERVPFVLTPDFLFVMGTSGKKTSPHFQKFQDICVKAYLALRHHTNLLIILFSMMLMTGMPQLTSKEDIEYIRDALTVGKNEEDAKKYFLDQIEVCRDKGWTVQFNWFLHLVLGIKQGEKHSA
Sequence of PI3K p110 beta/p85 alpha (P27986 whole entry): as the sequence (P27986 whole entry) above
Sequence of PI3K p110 beta/p85 alpha (P42338 whole entry): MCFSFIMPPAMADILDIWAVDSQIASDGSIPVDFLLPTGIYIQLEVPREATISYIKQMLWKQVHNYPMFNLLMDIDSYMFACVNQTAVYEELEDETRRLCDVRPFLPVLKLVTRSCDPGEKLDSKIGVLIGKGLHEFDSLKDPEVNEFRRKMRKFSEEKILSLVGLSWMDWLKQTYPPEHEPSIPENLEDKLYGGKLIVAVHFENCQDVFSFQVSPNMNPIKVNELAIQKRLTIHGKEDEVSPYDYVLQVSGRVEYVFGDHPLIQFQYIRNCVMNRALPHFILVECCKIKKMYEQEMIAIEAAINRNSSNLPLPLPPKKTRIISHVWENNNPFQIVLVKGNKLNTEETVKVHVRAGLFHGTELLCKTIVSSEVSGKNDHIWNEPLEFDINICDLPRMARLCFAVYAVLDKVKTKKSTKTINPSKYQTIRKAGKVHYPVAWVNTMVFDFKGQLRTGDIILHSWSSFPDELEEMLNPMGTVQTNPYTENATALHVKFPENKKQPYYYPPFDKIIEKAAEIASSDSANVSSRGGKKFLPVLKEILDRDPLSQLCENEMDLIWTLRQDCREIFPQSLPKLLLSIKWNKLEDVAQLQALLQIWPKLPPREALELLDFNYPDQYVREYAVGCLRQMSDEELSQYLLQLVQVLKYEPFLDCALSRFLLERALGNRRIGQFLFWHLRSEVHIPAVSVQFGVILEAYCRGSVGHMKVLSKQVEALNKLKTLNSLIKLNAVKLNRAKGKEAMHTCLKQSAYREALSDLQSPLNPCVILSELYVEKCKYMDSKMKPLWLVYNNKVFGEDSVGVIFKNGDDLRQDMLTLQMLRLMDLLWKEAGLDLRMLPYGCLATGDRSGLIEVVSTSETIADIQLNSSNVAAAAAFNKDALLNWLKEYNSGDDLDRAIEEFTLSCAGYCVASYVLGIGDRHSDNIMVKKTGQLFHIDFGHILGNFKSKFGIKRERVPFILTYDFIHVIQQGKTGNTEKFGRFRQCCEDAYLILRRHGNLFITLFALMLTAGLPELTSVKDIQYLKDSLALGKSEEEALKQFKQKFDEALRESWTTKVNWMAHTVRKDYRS

As to `COc1ncc(-c2ccc3ncc(NC(C)=O)c(OC)c3c2)cc1NS(=O)(=O)c1ccc(F)cc1F`, the IC50 in series [1] came out at 8.4 nM; in series [2], 1240 nM; in series [3] it was 550 nM.

For `CCNc1cnc2ccc(-c3cnc(OC)c(NS(=O)(=O)c4ccc(F)cc4F)c3)cc2c1OC`, the results for the IC50 in series [1], in [2] and in [3] were 9.4 nM, 4820 nM and 1850 nM, respectively.

In the case of `COc1ncc(-c2ccc3ncc(NC(=O)C4CCCCC4)c(OC)c3c2)cc1NS(=O)(=O)c1ccc(F)cc1F`, the 50% inhibitory concentration (IC50) in series [1] is 15 nM; in series [2], 6630 nM; in series [3] it was 4610 nM.

`COc1ncc(-c2ccc3ncc(NC(=O)CN4CCOCC4)c(OC)c3c2)cc1NS(=O)(=O)c1ccc(F)cc1`: the IC50 in series [1] was 2.7 nM; in series [2], 1830 nM; in series [3], 2830 nM.

Take `COc1ncc(-c2ccc3ncc(NCc4ccc(C(F)(F)F)cc4)c(OC)c3c2)cc1NS(=O)(=O)c1ccc(F)cc1F`: the IC50 in series [1] amounted to 30 nM; in series [2], 2880 nM; in [3], 3220 nM.

For `COc1ncc(-c2ccc3ncc(NCc4ccccc4)c(OC)c3c2)cc1NS(=O)(=O)c1ccc(F)cc1F`, the results for the IC50 in [1], in series [2] and in series [3] were 36 nM, 4320 nM and 16800 nM, respectively.

Take `COc1ncc(-c2ccc3ncc(NC(=O)CN4CCOCC4)c(OC)c3c2)cc1NS(=O)(=O)c1ccc(C(F)(F)F)cc1`: the half-inhibitory concentration (IC50) in series [1] was 2.26 nM; in [2] it was 3750 nM; in series [3] it was 2520 nM.

Take `COc1ccc(CNc2cnc3ccc(-c4cnc(OC)c(NS(=O)(=O)c5ccc(F)cc5F)c4)cc3c2OC)cc1`: the IC50 turned out to be 27 nM in series [1], 4520 nM in series [2] and 10200 nM in series [3].

`COc1ncc(-c2ccc3ncc(NC(=O)CN(C)CCO)c(OC)c3c2)cc1NS(=O)(=O)c1ccc(F)cc1F`: the IC50 in series [1] worked out at 1.3 nM; in series [2] it was 2000 nM; in [3], 1790 nM.

For the molecule `COc1ncc(-c2ccc3ncc(NC(=O)CN4CCC(O)CC4)c(OC)c3c2)cc1NS(=O)(=O)c1ccc(F)cc1F`, the IC50 in series [1] is 2 nM; in series [2] it was 3210 nM; in series [3], 1980 nM.

`COc1ncc(-c2ccc3ncc(NC(=O)CN4CCN(C)CC4)c(OC)c3c2)cc1NS(=O)(=O)c1ccc(F)cc1F`: the IC50 was 3.2 nM in series [1], 1730 nM in [2] and 1540 nM in series [3].

For `Cn1c(=O)n(-c2ccc(C(C)(C)C#N)cc2)c2c3cc(-c4cnc5ccccc5c4)ccc3ncc21` [DACTOLISIB], the IC50 in series [2] is 510 nM; in series [3] it was 220 nM.

Consider `COc1ncc(-c2ccc3ncc(NC(=O)CN4CCOCC4)c(OC)c3c2)cc1NS(=O)(=O)c1ccc(F)cc1F`, for which the IC50 came to 1.7 nM in series [1]; 80 nM in series [2]; 8.4 nM in series [6]; 0.87 nM in series [8]; 470 nM in series [3]; 3.9 nM in [10]. In addition, the IC50 in [12] worked out at 10 nM. For the same molecule, the Cmax in [4] was found to be 2950 ng/mL. For the same molecule, the half-life in [5] is 1.6 h. In [7], this molecule came in with a Vd of 1 L/kg. The AUC(0-t) in series [9] is 11700 ng·h/mL. The MRT in series [11] came out at 2.7 h. This molecule also gave an apparent clearance (CL/F) in [13] of 7 mL/min/kg. Also, the inhibition result in series [14] was “Active”.

Take `COc1ncc(-c2ccc3ncc(NCC4CCCCC4)c(OC)c3c2)cc1NS(=O)(=O)c1ccc(F)cc1F`: the IC50 in [1] came out at 210 nM; in series [2] it was 9000 nM; in series [3] it was 13600 nM.

Take `COc1ncc(-c2ccc3ncc(NC(=O)CN4CCCC(O)C4)c(OC)c3c2)cc1NS(=O)(=O)c1ccc(F)cc1F` (stereo unspecified): the IC50 was determined as 1.5 nM in series [1], 1340 nM in [2] and 1770 nM in series [3].

Take `COc1ncc(-c2ccc3ncc(NCC4CCN(C(C)=O)CC4)c(OC)c3c2)cc1NS(=O)(=O)c1ccc(F)cc1F`: the results for the IC50 in series [1], in series [2] and in series [3] were 3.7 nM, 2570 nM and 1930 nM, respectively.

In the case of `COc1ncc(-c2ccc3ncc(NCC4CCN(S(C)(=O)=O)CC4)c(OC)c3c2)cc1NS(=O)(=O)c1ccc(F)cc1F`, the IC50 in series [1] was 4.7 nM; in series [2], 2850 nM; in series [3], 1360 nM.
